# Measured values from patent publication US20260256778A1 (AbbVie Inc., priority 2023, published 2026).
# Read-outs that look alike come from different tables or passages of the source.
# Assays:
# [1] = system: inflammatory chemotactic proteins (CXCL9 and 10) and T-cell activation markers (IL12B and TNFSF9); test: Serum type 1 inflammation biomarkers in the Phase 2 study; format: in vivo, human
# Source text: (§1) No differences were apparent for active vs. stable subjects.
# [2] = system: CXCL10; test: Serum CXCL10 level in the Phase 2 study; format: in vivo, human; conditions: by week 2, all dose groups
# Source text: as §1
# [3] = system: facial vitiligo area; test: 3D digital imaging substudy of facial vitiligo area (Example 3); format: in vivo, human; parameters: F-VASI, Wk 24: scale not given here; conditions: for percent reduction of facial vitiligo area from Baseline by 3D imaging / Treatment effect size, Cohen's d of 3D Imaging / Treatment effect size, Cohen's d of F-VASI: Week 24
# Source text: Specifically, multiple stereoscopic images were captured by a proprietary optical 3D scanner for a subset of patients in the referenced study. The data acquisition procedure and determination of vitiligo area using the 3D platform were as follows: • 1. Subject was scanned, acquiring 2D raw color images with real time feedback to generate 3D gray low-resolution model • 2. Full resolution color model generated and uploaded to cloud • 3. Web application opened by investigator, who manually selected threshold for each region of face. • 4. The detected vitiligo area was measured and results reported
# To accomplish these objectives, twenty-seven subjects were enrolled into the 3D imaging substudy across 6 clinical sites. Twenty-one subjects had high quality 3D images available at Week 24 for analysis. Subjects who enrolled in the 3D digital imaging substudy were randomized as per the main protocol. The demographics, including Fitzpatrick skin types, and baseline disease characteristics in the 3D imaging substudy are provided in Table 9. With reference to Table 9, the demographics were in general consistent with the overall study population.
# The quality and completeness of each scan was assessed by a visual inspection of the resulting 3D image by the technician and/or investigator, utilizing Wood's lamp visualization to set a threshold at Baseline, defined as the intensity value used to distinguish which 3D pixels within the image belong to the vitiligo area or to the normal skin area. The threshold value determined by the investigator at Baseline remained constant and applied to all post-baseline 3D images during the treatment period to reflect changes in the pigmentation. Each 3D image included 10 predefined anatomic regions of the face: forehead, left eye, right eye, left lateral cheek/temple, left middle cheek, nose, right middle cheek, right lateral cheek/temple, upper lip, and chin. Results are presented as the sum of vitiligo area measurement (cm^2) across all anatomic regions of the face.
# [4] = Solubility of upadacitinib in different aqueous media at 37° C.; format: physicochemical
# [5] = system: non-segmental vitiligo (NSV); conditions: for Percent CFB in F-VASI; LSMEAN (SE): Week 24, MMRM; for F-VASI 75; (%): Week 24, NRI
# [6] = 22 mg QD, one representative subject, Baseline to Week 24
# [7] = Placebo (N = 3) vs 6 mg (N = 7)
# [8] = Placebo (N = 3) vs 11 mg (N = 6)
# [9] = Placebo (N = 3) vs 22 mg (N = 5)
# [10] = 6 mg QD, Week 24, change from baseline, 44 patients
# [11] = 11 mg QD, Week 24, change from baseline, 45 patients
# [12] = 22 mg QD, Week 24, change from baseline, 34 patients
structure (smiles),measurement,setting,value
"CC[C@@H]1CN(C(=O)NCC(F)(F)F)C[C@@H]1c1cnc2cnc3[nH]ccc3n12 [Upadacitinib, (3S,4R)-3-ethyl-4-(3H-imidazo[1,2-a]pyrrolo[2,3-e]pyrazin-8-yl)-N-(2,2,2-trifluoroethyl) pyrrolidine-1-carboxamide]",Inhibition of type 1 inflammation biomarkers,[1]; 11 mg dose,maximal inhibition was achieved
same,"Change from baseline in CXCL9, CXCL10, IL12B and TNFSF9","[1]; all upadacitinib doses, from week 2 through week 24, data not shown",Reductions from baseline were observed
same,CXCL10 levels,[2],reduced to those in healthy volunteers
same,"% Change Facial Vitiligo Area by 3D Imaging at Week 24, Mean","[3]; 6 mg QD, N 7",−15.20%
same,"% Change Facial Vitiligo Area by 3D Imaging at Week 24, Median","[3]; 6 mg QD, N 7",−9.85%
same,percent reduction of facial vitiligo area from Baseline by 3D imaging,[3]; 6 mg QD,15.2%
same,"% Change Facial Vitiligo Area by 3D Imaging at Week 24, Mean","[3]; 11 mg QD, N 6",−34.96%
same,"% Change Facial Vitiligo Area by 3D Imaging at Week 24, Median","[3]; 11 mg QD, N 6",−37.38%
same,percent reduction of facial vitiligo area from Baseline by 3D imaging,[3]; 11 mg QD,34.96%
same,"% Change Facial Vitiligo Area by 3D Imaging at Week 24, Mean","[3]; 22 mg QD, N 5",−23.00%
same,"% Change Facial Vitiligo Area by 3D Imaging at Week 24, Median","[3]; 22 mg QD, N 5",−27.2%
same,percent reduction of facial vitiligo area from Baseline by 3D imaging,[3]; 22 mg QD,23%
same,"Cherry 3D imaging vitiligo area, % change",[3]; [6],−27.2%
same,"F-VASI, % change",[3]; [6],−24.62%
same,"Cherry 3D imaging vitiligo area, % change","[3]; 22 mg QD, one representative subject, Baseline to Week 24, listed as upadacitinib",−27.20%
same,"Cherry 3D imaging vitiligo area, Wk 24","[3]; 22 mg QD, one representative subject, Fitzpatrick Type III, baseline 215.84",157.13 cm^2
same,"F-VASI, Wk 24","[3]; 22 mg QD, one representative subject, baseline 1.3",0.98
same,percent change from baseline in vitiligo extent score (VES) by 3D imaging evaluation,"[3]; 11 and 22 mg versus placebo, preliminary",greater percent change from baseline
same,"Treatment effect size, Cohen's d of 3D Imaging",[3]; [7],0.50
same,"Treatment effect size, Cohen's d of F-VASI",[3]; [7],0.76
same,"Treatment effect size, Cohen's d of 3D Imaging",[3]; [8],> 0.8
same,"Treatment effect size, Cohen's d of F-VASI",[3]; [8],0.13
same,"Treatment effect size, Cohen's d of 3D Imaging","[3]; Placebo (N = 3) vs 11 mg (N = 6), listed as UPA",1.36
same,"Treatment effect size, Cohen's d of 3D Imaging",[3]; [9],> 0.8
same,"Treatment effect size, Cohen's d of F-VASI",[3]; [9],0.61
same,"Treatment effect size, Cohen's d of 3D Imaging","[3]; Placebo (N = 3) vs 22 mg (N = 5), listed as UPA",1.02
same,solubility,"[4]; 50 mM carbonate buffer, 37 °C, pH 9.11, aqueous buffer, thermodynamic from solid",199 ± 6 µg/mL
same,Solubility (in words),[4]; at low pH,good solubility
same,VitiQoL LS mean change,[5]; 6 mg,−7.5%
same,Percent CFB in F-VASI; LSMEAN (SE),[5]; 6 mg QD oral,−21.96 (5.162) Percent
same,CFB in VitiQoL Total Score; LSMEAN (SE),"[5]; 6 mg QD, Week 24",−7.5 (2.27)
same,Percent CFB in T-VASI; LSMEAN (SE),"[5]; 6 mg QD, Week 24",−13.87 (3.332) Percent
same,T-VASI 50; (%),"[5]; 6 mg QD, Week 24",6.1%
same,"Δ vs PBO, CFB in VitiQoL Total Score","[5]; 6 mg QD, Week 24",Δ = −1.9;
same,"Δ vs PBO, F-VASI 50","[5]; 6 mg QD, Week 24",Δ = 6.6;
same,"Δ vs PBO, F-VASI 75","[5]; 6 mg QD, Week 24",Δ = 6.9;
same,"Δ vs PBO, Percent CFB in F-VASI","[5]; 6 mg QD, Week 24",Δ = −7.60;
same,"Δ vs PBO, Percent CFB in T-VASI","[5]; 6 mg QD, Week 24",Δ = −7.45;
same,"Δ vs PBO, T-VASI 50","[5]; 6 mg QD, Week 24",Δ = 3.7;
same,"Δ vs PBO, much better or a little better on PaGIC","[5]; 6 mg QD, Week 24",Δ = 14.3%
same,"Δ vs PBO, much better or a little better on PhGIC","[5]; 6 mg QD, Week 24",Δ = 18%
same,"Achieving much better or a little better on PaGIC (PaGIC-V score of 1 or 2), responders n","[5]; 6 mg QD, Week 24, N = 49",17 n
same,F-VASI 50; n,"[5]; 6 mg QD, Week 24, N = 49",8 n
same,T-VASI 50; n,"[5]; 6 mg QD, Week 24, N = 49",3 n
same,"VNS score of 4 or 5, Responders n","[5]; 6 mg QD, Week 24, N = 49",0 n
same,F-VASI 75; n,"[5]; 6 mg QD, Week 24, N = 49, NRI",4 n
same,F-VASI 75; (%),[5]; 6 mg QD,8.2%
same,DLQI LS mean change,"[5]; 6 mg QD, Week 24, change from baseline, 43 patients",−1.4%
same,HADS Anxiety LS mean change,[5]; [10],−0.7%
same,HADS Depression LS mean change,[5]; [10],0.2%
same,Percent CFB in F-VASI,"[5]; 6 mg, Week 52, As Observed, N = 38",−52.7%
same,Percent CFB in F-VASI,"[5]; 6 mg, Week 52, Intent-to-Treat, MMRM/NRI-MI, N = 49",−52.3%
same,Percent CFB in F-VASI; LSMEAN (SE),[5]; 11 mg QD oral,−35.63 (5.297) Percent
same,CFB in VitiQoL Total Score; LSMEAN (SE),"[5]; 11 mg QD, Week 24",−3.7 (2.30)
same,Percent CFB in T-VASI; LSMEAN (SE),"[5]; 11 mg QD, Week 24",−17.26 (3.414) Percent
same,T-VASI 50; (%),"[5]; 11 mg QD, Week 24",6.4%
same,"Δ vs PBO, CFB in VitiQoL Total Score","[5]; 11 mg QD, Week 24",Δ = 1.9;
same,"Δ vs PBO, F-VASI 50","[5]; 11 mg QD, Week 24",Δ = 29.3;
same,"Δ vs PBO, F-VASI 75","[5]; 11 mg QD, Week 24",Δ = 17.8;
same,"Δ vs PBO, Percent CFB in F-VASI","[5]; 11 mg QD, Week 24",Δ = −21.27;
same,"Δ vs PBO, Percent CFB in T-VASI","[5]; 11 mg QD, Week 24",Δ = −10.84;
same,"Δ vs PBO, T-VASI 50","[5]; 11 mg QD, Week 24",Δ = 3.8;
same,"Δ vs PBO, much better or a little better on PaGIC","[5]; 11 mg QD, Week 24",Δ = 38.5%
same,"Δ vs PBO, much better or a little better on PhGIC","[5]; 11 mg QD, Week 24",Δ = 37.8%
same,"Achieving much better or a little better on PaGIC (PaGIC-V score of 1 or 2), responders n","[5]; 11 mg QD, Week 24, N = 47",26 n
same,F-VASI 50; n,"[5]; 11 mg QD, Week 24, N = 47",18 n
same,T-VASI 50; n,"[5]; 11 mg QD, Week 24, N = 47",3 n
same,"VNS score of 4 or 5, Responders n","[5]; 11 mg QD, Week 24, N = 47",0 n
same,F-VASI 75; n,"[5]; 11 mg QD, Week 24, N = 47, NRI",9 n
same,F-VASI 75; (%),[5]; 11 mg QD,19.1%
same,DLQI LS mean change,"[5]; 11 mg QD, Week 24, change from baseline, 42 patients",−1.2%
same,VitiQoL LS mean change,"[5]; 11 mg QD, Week 24, change from baseline, 44 patients",−3.7%
same,HADS Anxiety LS mean change,[5]; [11],0.0%
same,HADS Depression LS mean change,[5]; [11],−0.3%
same,Percent CFB in F-VASI,"[5]; 11 mg, Week 52, As Observed, N = 38",−64.8%
same,Percent CFB in F-VASI,"[5]; 11 mg, Week 52, Intent-to-Treat, MMRM/NRI-MI, N = 47",−62.8%
same,Percent CFB in F-VASI; LSMEAN (SE),[5]; 22 mg QD oral,−33.96 (5.793) Percent
same,Percent CFB in T-VASI; LSMEAN (SE),"[5]; 22 mg QD, Week 24",−20.69 (3.731) Percent
same,T-VASI 50; (%),"[5]; 22 mg QD, Week 24",11.6%
same,"VNS score of 4 or 5, Responders (%)","[5]; 22 mg QD, Week 24",(11.6) %
same,"Δ vs PBO, CFB in VitiQoL Total Score","[5]; 22 mg QD, Week 24",Δ = −1.1;
same,"Δ vs PBO, F-VASI 50","[5]; 22 mg QD, Week 24",Δ = 28.7;
same,"Δ vs PBO, F-VASI 75","[5]; 22 mg QD, Week 24",Δ = 11.7;
same,"Δ vs PBO, Percent CFB in F-VASI","[5]; 22 mg QD, Week 24",Δ = −19.60;
same,"Δ vs PBO, Percent CFB in T-VASI","[5]; 22 mg QD, Week 24",Δ = −14.27;
same,"Δ vs PBO, T-VASI 50","[5]; 22 mg QD, Week 24",Δ = 9.1;
same,"Δ vs PBO, much better or a little better on PaGIC","[5]; 22 mg QD, Week 24",Δ = 41.1%
same,"Δ vs PBO, much better or a little better on PhGIC","[5]; 22 mg QD, Week 24",Δ = 32%
same,"Achieving much better or a little better on PaGIC (PaGIC-V score of 1 or 2), responders n","[5]; 22 mg QD, Week 24, N = 43",26 n
same,F-VASI 50; n,"[5]; 22 mg QD, Week 24, N = 43",17 n
same,T-VASI 50; n,"[5]; 22 mg QD, Week 24, N = 43",5 n
same,"VNS score of 4 or 5, Responders n","[5]; 22 mg QD, Week 24, N = 43",5 n
same,F-VASI 75; n,"[5]; 22 mg QD, Week 24, N = 43, NRI",6 n
same,F-VASI 75; (%),[5]; 22 mg QD,14.0%
same,HADS Anxiety LS mean change,[5]; [12],−0.3%
same,HADS Depression LS mean change,[5]; [12],−0.1%
same,VitiQoL LS mean change,[5]; [12],−6.6%
same,DLQI LS mean change,"[5]; 22 mg QD, Week 24, change from baseline, 35 patients",−2.2%
same,Percent CFB in F-VASI,"[5]; 22 mg, Week 52, As Observed, N = 29",−60.8%
same,Percent CFB in F-VASI,"[5]; 22 mg, Week 52, Intent-to-Treat, MMRM/NRI-MI, N = 43",−59.2%
